Data as given in patent US8420668B2, “1-(2H)-isoquinolone derivative” (Chugai Seiyaku Kabushiki Kaisha, priority 2008, dated 2013).
≈ marks a conversion by molar mass, not a printed value.

Assays:
[1] = Measurement of solubility in physiological saline; assay type: physicochemical; details: stirred 2 hours, filtered, HPLC
Experimental: The solubility of exemplary compounds of the present invention was measured.
The measurement was carried out using an internal standard method, and a 4-point calibration curve (4000 μM, 1000 μM, 250 μM, and 31.3 μM, or 1000 μM, 250 μM, 62.5 μM, and 7.8 μM) was prepared. A sample solution (100% DMSO) was lyophilized, and each solution was added. Then, the mixture was stirred for 2 hours, and the sample dissolved in the solution was filtered. Thereafter, the filtrate was measured by HPLC (HPLC). Physiological saline was used as a solution. Note that among the test compounds used, comparative compound 1 was the compound of Example 3-26 described in International publication No. WO06/090743 (phosphoric acid dibenzyl ester(R)-2-oxo-3-[1-oxo-3-(2-trifluoromethylphenyl)-1,2-dihydroisoquinolin-7-yl]-oxazolidin-5-ylmethyl ester). Further, the optical isomer of comparative compound 1, i.e., phosphoric acid dibenzyl ester(S)-2-oxo-3-[1-oxo-3-(2-trifluoromethylphenyl)-1,2-dihydroisoquinolin-7-yl]-oxazolidin-5-ylmethyl ester, was used as comparative compound 2. An active substance of the compound of the present invention, i.e., 7-((S)-5-hydroxymethyl-2-oxooxazolidin-3-yl)-3-(2-trifluoromethylphenyl)-2H-isoquinolin-1-one, was used as comparative compound 3. Another active substance of the compound of the present invention, i.e., 7-((R)-5-hydroxymethyl-2-oxooxazolidin-3-yl)-3-(2-trifluoromethylphenyl)-2H-isoquinolin-1-one, was used as comparative compound 4.

[2] = Measurement of conversion rate in human plasma; assay type: in vitro ADME; details: 37° C., 50 μM
Experimental: The conversion rate of exemplary compounds of the present invention in human plasma was measured. The measurement of conversion rate in human plasma was conducted using human plasma purchased from Rockland Immunochemicals, Inc. (Pennsylvania, the United States of America). Each compound was incubated at 37° C. for 6 hours in plasma at a concentration of 50 μM, subjected to deproteinization treatment, and then quantified by HPLC using an internal standard method. The conversion rate was calculated as a residual rate after 6 hours. Comparative compounds 1 and 2 described above were also tested as test compounds.

[3] = test system: human colon cancer cell line HCT116; assay: Measurement of antitumor effect in HCT116 tumor-bearing nude mice; assay type: in vivo, BALB/c nude mouse; details: tail vein, administered twice (day 0 and day 7), HCT116 subcutaneous xenograft, vs control group 14 days after start
Experimental: The antitumor effect of exemplary compounds of the present invention was measured.
The antitumor effect was determined using tumor-bearing mice prepared by subcutaneously implanting a human colon cancer cell line HCT116 obtained from American Type Culture Collection (Virginia, the United States of America) into flank of each BALB/c nude mouse purchased from Charles River, Japan. The purchased nude mice were quarantined for 1 week, and thereafter about 5×10^6 HCT116 cells were subcutaneously implanted into flank of each mouse. The mice were subjected to the experiment at the time when their tumor grew to a size of about 200 mm^3.
Each compound was dissolved in an administration solution, and the solution was administered to the tail vein at 0.1 mL per 10 g of body weight of each mouse. Administration was carried out twice in total; on the initiation day of administration and 7 days after the initiation day. The antitumor effect was calculated as tumor growth inhibition by comparing with tumor growth in the administration solution-administered control group 14 days after the initiation day of administration.

[4] = saline or isotonic, thermodynamic from solid

Row | SMILES | solubility at 2 h [1, 4] [µM] | Residual rate (after 6 hrs., %) [2] [%] | other results
1 | O=C1O[C@H](COP(=O)(O)O)CN1c1ccc2cc(-c3ccccc3C(F)(F)F)[nH]c(=O)c2c1 [Example 1, Mono-{(S)-2-oxo-3-[1-oxo-3-(2-trifluoromethyl-phenyl)-1,2-dihydro-isoquinolin-7-yl]-oxazolidin-5-ylmethyl}-phosphoric acid] | 3530 (≈ 1710 µg/mL) | 35.4 | –
2 | O=C1O[C@H](COP(=O)([O-])[O-])CN1c1ccc2cc(-c3ccccc3C(F)(F)F)[nH]c(=O)c2c1.[Na+].[Na+] [Example 2, Mono-{(S)-2-oxo-3-[1-oxo-3-(2-trifluoromethyl-phenyl)-1,2-dihydro-isoquinolin-7-yl]-oxazolidin-5-ylmethyl}-disodium phosphate] | – | 29.4 | TGI on day 14 (%) ([3]; 60 mg/kg): 85%; solubility at 2 h [1]: 3527 µM; remained in human plasma after 6 hours (in words) [2]: almost all
3 | O=C1O[C@@H](COP(=O)(O)O)CN1c1ccc2cc(-c3ccccc3C(F)(F)F)[nH]c(=O)c2c1 [Example 6, Mono-{(R)-2-oxo-3-[1-oxo-3-(2-trifluoromethyl-phenyl)-1,2-dihydro-isoquinolin-7-yl]-oxazolidin-5-ylmethyl}-phosphoric acid] | > 4000 | – | –
4 | O=C1O[C@@H](COP(=O)(O)O)CN1c1ccc2cc(-c3ccccc3C(F)(F)F)[nH]c(=O)c2c1 [Example 7, Mono-{(R)-2-oxo-3-[1-oxo-3-(2-trifluoromethyl-phenyl)-1,2-dihydro-isoquinolin-7-yl]-oxazolidin-5-ylmethyl}-disodium phosphate] | – | 33.4 | TGI on day 14 (%) ([3]; 80 mg/kg): 30%

The next lines start with results.

Row | solubility at 2 h [1, 4] [µM] | SMILES | Residual rate (after 6 hrs., %) [2] [%] | other results
5 | < 7.8 | O=C1O[C@@H](COP(=O)(OCc2ccccc2)OCc2ccccc2)CN1c1ccc2cc(-c3ccccc3C(F)(F)F)[nH]c(=O)c2c1 [Comparative compound 1, phosphoric acid dibenzyl ester(R)-2-oxo-3-[1-oxo-3-(2-trifluoromethylphenyl)-1,2-dihydroisoquinolin-7-yl]-oxazolidin-5-ylmethyl ester, reference compound] | 99.5 | remained in human plasma after 6 hours (in words) [2]: almost all
6 | < 7.8 | O=C1O[C@H](COP(=O)(OCc2ccccc2)OCc2ccccc2)CN1c1ccc2cc(-c3ccccc3C(F)(F)F)[nH]c(=O)c2c1 [Comparative compound 2, phosphoric acid dibenzyl ester(S)-2-oxo-3-[1-oxo-3-(2-trifluoromethylphenyl)-1,2-dihydroisoquinolin-7-yl]-oxazolidin-5-ylmethyl ester, reference compound] | 95.5 | –
7 | 179 (≈ 72.4 µg/mL) | O=C1O[C@H](CO)CN1c1ccc2cc(-c3ccccc3C(F)(F)F)[nH]c(=O)c2c1 [Comparative compound 3, 7-((S)-5-hydroxymethyl-2-oxooxazolidin-3-yl)-3-(2-trifluoromethylphenyl)-2H-isoquinolin-1-one] | – | –
8 | 193 (≈ 78 µg/mL) | O=C1O[C@@H](CO)CN1c1ccc2cc(-c3ccccc3C(F)(F)F)[nH]c(=O)c2c1 [Comparative compound 4, 7-((R)-5-hydroxymethyl-2-oxooxazolidin-3-yl)-3-(2-trifluoromethylphenyl)-2H-isoquinolin-1-one] | – | –
